pIC50, pKi: −log10 of the molar value.
The compounds below were run against T1, hERG (KCNH2) (Homo sapiens, UniProt Q12809) (assay: Displacement of [3H]astemizole from human ERG channel expressed in HEK293 cell membrane at 10 uM after 1 hr by scintillation counting analysis). Conditions: membranes of HEK293 cells that express hERG, probe [3H]astemizole.
T1 sequence (Q12809 whole entry): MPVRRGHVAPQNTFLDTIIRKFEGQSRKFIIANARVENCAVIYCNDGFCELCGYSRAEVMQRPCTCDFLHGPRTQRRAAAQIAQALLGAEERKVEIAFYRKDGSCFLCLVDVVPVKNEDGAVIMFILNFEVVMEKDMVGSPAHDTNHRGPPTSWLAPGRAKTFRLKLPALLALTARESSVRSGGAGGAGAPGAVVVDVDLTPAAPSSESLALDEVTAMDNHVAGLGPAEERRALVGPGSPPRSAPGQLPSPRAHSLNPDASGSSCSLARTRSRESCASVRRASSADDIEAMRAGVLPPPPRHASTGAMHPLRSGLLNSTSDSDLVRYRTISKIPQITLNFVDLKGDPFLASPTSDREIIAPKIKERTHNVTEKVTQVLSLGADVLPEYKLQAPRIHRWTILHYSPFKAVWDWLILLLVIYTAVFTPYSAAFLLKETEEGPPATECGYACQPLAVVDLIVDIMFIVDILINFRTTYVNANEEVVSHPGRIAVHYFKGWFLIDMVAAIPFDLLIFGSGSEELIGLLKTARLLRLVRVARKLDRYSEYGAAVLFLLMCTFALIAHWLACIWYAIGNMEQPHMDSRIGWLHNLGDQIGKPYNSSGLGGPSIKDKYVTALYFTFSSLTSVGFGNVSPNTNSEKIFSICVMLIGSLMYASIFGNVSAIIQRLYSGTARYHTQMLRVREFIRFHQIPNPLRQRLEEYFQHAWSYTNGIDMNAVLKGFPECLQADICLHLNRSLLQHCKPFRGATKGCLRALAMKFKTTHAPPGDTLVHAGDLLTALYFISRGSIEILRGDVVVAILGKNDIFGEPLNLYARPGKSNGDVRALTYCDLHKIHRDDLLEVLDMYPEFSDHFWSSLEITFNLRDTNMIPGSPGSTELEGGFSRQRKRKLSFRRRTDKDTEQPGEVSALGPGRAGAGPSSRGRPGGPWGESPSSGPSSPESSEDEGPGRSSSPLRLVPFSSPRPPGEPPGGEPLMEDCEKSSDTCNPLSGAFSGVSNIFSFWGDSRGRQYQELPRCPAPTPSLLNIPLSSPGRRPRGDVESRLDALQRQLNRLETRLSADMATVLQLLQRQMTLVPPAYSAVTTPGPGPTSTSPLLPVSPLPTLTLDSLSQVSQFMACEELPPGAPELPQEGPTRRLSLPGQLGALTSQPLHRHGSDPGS

| Compound | inhibition at 1 h, 10 µM [%] |
| --- | --- |
| CCCCN(CC)CC#CCCc1ccccc1 | 48 |
| CCCCN(CC)CC#CC#Cc1ccc(C)cc1 | 47 |

The compounds below were run against T1, hERG (KCNH2) (assay: Ratio of Ki for human ERG channel expressed in HEK293 cell membrane after 1 hr by scintillation counting analysis to IC50 for human ERG channel expressed in HEK293 cells after 15 mins by whole-cell patch clamp technique). Conditions: not given.
Format: cell membranes

| Compound | selectivity ratio |
| --- | --- |
| CCCCCCCN(CC)CC#CCCc1ccc(Cl)cc1 | 2 |

These compounds were tested against T2, Voltage-gated inwardly rectifying potassium channel KCNH2 (Homo sapiens, UniProt Q12809) (assay: Inhibition of human ERG channel expressed in HEK293 cells after 15 mins by whole-cell patch clamp technique). Conditions: not given.
T2 sequence (Q12809 whole entry): as above
Format: cell-based

| Compound | pIC50 |
| --- | --- |
| CCCCCCCN(CC)CC#CCCc1ccc(Cl)cc1 | 7.28 |

Each compound was assayed against T2, Voltage-gated inwardly rectifying potassium channel KCNH2 (assay: Displacement of [3H]astemizole from human ERG channel expressed in HEK293 cell membrane after 1 hr by scintillation counting analysis). Conditions: not given.

| Compound | pIC50 | pKi |
| --- | --- | --- |
| CCCCN(CC)CC#CCOCc1ccc(Cl)cc1 | 5.13 | – |
| CCCCCCCN(CC)C/C=C/CCc1ccc(Cl)cc1 | 6.62 | – |
| CCCCCCCN1CCC(C(=O)c2ccccc2)CC1 | 6.91 | – |
| CCCCCCCN(CC)CC#Cc1ccc(Cl)cc1 | 5.39 | – |
| CCCCCCC[N+](CC)(CC)CC#Cc1ccc(Cl)cc1 | 7.40 | – |
| CCCCCCCN(CC)CC#CCCc1ccccc1 | 5.36 | – |
| CCCCCCCN(CC)CC#CCCc1ccc(Cl)cc1 | 6.12 | 6.83 |
| CCCCN(CC)CC#CCCc1ccc(C)cc1 | 5.25 | – |
| CCCCN(CC)C/C=C/c1ccc(Cl)cc1 | 5.98 | – |
| CCCCCCCN(CC)C/C=C/c1ccc(Cl)cc1 | 6.61 | – |
| CCCCCCCN(CC)CC#CCOC(c1ccccc1)c1ccccc1 | 6.01 | – |

— ChEMBL document CHEMBL3091311, “Removal of human ether-à-go-go related gene (hERG) K+ channel affinity through rigidity: a case of clofilium analogues” (J Med Chem, 2013)
